Broadly, the IC50 is the concentration needed to halve the response being measured.

Structures are written as SMILES.

IC50 data for one molecule are collected here from publication PMC12612088 (Scientific Reports, 2025).

The assay addresses Pyruvate Dehydrogenase Kinase 3 (PDK3) (Homo sapiens, UniProt Q15120). Briefly: BIOMOL Green ATPase assay with purified PDK3. Type of assay: biochemical.

Chain of Pyruvate Dehydrogenase Kinase 3 (PDK3) (Q15120 whole entry): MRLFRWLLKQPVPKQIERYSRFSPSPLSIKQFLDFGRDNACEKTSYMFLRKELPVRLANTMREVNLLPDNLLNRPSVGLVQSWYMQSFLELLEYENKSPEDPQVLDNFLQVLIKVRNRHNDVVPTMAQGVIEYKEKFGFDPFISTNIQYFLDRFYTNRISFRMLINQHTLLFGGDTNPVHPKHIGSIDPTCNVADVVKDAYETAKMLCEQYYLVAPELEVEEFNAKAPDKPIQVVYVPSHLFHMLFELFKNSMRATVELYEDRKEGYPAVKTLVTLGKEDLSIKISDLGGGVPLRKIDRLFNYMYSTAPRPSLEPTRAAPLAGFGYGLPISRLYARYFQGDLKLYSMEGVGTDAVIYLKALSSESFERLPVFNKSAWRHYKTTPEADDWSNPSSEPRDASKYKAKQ

`Cc1ccc(O)cc1` [p-C, 4-methylphenol]: the midpoint of inhibition, the IC50, lay at 3.52 µM.
